# Tested on: Human fibroblasts
# Assay: Stimulation of collagen synthesis measured by incorporation of tritiated proline in fibroblast collagenic fractions
# Assay type: cell-based
# Conditions: 72 hours of treatment
# Description: The stimulation of collagen synthesis by peptides of the present invention was evaluated by measuring the incorporation of tritiated proline in fibroblasts collagenic fractions. The assay was conducted as follows. Human fibroblasts (obtained from the human biopsy of a person) were seeded in 24-well plates at approximately 40,000 cells per well in 1 ml of culture medium. The culture medium contained DMEM (Invitrogen S.a.r.l., Cergy Pontoise, France) supplemented with 10% Fetal Calf Serum (FCS, Cambrex Bio Science Paris S.a.r.l., Emerainville, France), 1% Glutamax (Invitrogen S.a.r.l.), 4 μg/ml gentamicine (Invitrogen S.a.r.l.), and 2.5 μg/ml Fungizone (Invitrogen S.a.r.l.). Cells were placed at 37° C. under 5% CO2 in a humidified atmosphere for 72 hours.
# The culture medium was the removed and replaced with 1 ml of either: (i) incubation medium alone (untreated control); (ii) incubation medium further containing 1 ng/ml TGFb1 (R&D Systems Europe, Lille, France) for use as a stimulated positive control; or (iii) incubation medium further containing one of the tested peptides at a concentration of 1 μg/ml or 10 μg/ml. The incubation medium contained DMEM supplemented with 2% FCS, 1% Glutamax, 4 μg/ml gentamicine, 2.5 μg/ml Fungizone, 50 μg/ml ascorbic acid, 50 μg/ml b-aminoproionitrile, and 3.4 μg/ml a ketoglutarate.
# During the last 24 hours of incubation, five μCi of tritiated proline (L-2,3-3H proline, Amersham Biosciences Europe, Saclay, France) was also added to each well. Each condition (untreated control, positive control and tested peptide) was performed in triplicate. In order to normalize the results, the same experiment was performed in parallel, except that tritiated proline was omitted. At the end of the treatment, cells were counted with a coulter counter. After 72 hours of treatment, incubation medium (supernatants) were collected in 2 ml microtubes and frozen at −20° C.
# In order to perform the collagen extraction, 1 ml of cold 20% TCA (Sigma-Aldrich, Lyon, France) was added to 1 ml of supernatant. The samples were then vortexed, incubated for 5 minutes (min) at −20° C., and let stand on ice for 30 min. The samples were then centrifuged (2300 g, 5 min, 4° C.). The supernatants were then eliminated, and the pellets were rinsed with 1 ml of cold 5% TCA, vortexed, and centrifuged (2300 g, 5 min, 4° C.). The pellets were then rinsed twice with 5% TCA following the same procedure as described above. The pellets were then dissolved in 0.3 ml of 0.05 N NaOH and neutralized with 0.1N HCl to reach pH 6-8. Then, 0.2 ml of protein solution was incubated for 2 hours at 37° C. in 2×Tris HCl Buffer containing 10 units of collagenase activity (Clostridium hystolyticum Type III collagenase, Sigma-Aldrich, Lyon, France).
# The enzymatic reaction was then stopped by precipitation with 500 μl of 15% TCA and 500 μl of 0.75% tannic acid. Samples were then incubated 30 min on ice. The precipitates were then centrifuged (2300 g, 5 min, 4° C.). The supernatants containing collagen fractions were collected, and scintillation liquid (Ecolume ICN) was added to each sample (5 ml to 100 μl sample). Then, radioactivity was measured in a β-scintillation counter.
# The rate of collagen synthesis was calculated as follows: Synthesis rate=(number of dpm/cell number)*1000
# The percentage of stimulation was calculated as follows: % of stimulation=[(synthesis rate in sample-synthesis rate in control)/(synthesis rate in control)]*100.
# [1] = peptide at 1 ug/ml in incubation medium
# [2] = peptide at 10 ug/ml in incubation medium
Substance,Percent stimulation vs. control [1] [%],"Percent stimulation vs. control (peptide at 1 ug/ml in incubation medium, listed as VFTRN) [%]",Percent stimulation vs. control [2] [%],"Percent stimulation vs. control (peptide at 10 ug/ml in incubation medium, listed as VFTRN) [%]","Percent stimulation vs. control (1 ng/ml in incubation medium, positive control) [%]","Percent stimulation vs. control (1 ng/ml in incubation medium, positive control, listed as TGFb) [%]","Percent stimulation vs. control (peptide at 1 ug/ml in incubation medium, listed as TRNDKL) [%]","Percent stimulation vs. control (peptide at 10 ug/ml in incubation medium, listed as TRNDKL) [%]"
H2-Val-Arg-Phe-Thr-Arg-Asn-OH (H-VRFTRN-OH) [Peptide 1],14.8,15,43.1,43,,,,
TGF b: potent stimulator of collagen synthesis in dermal fibroblast used as positive control [reference compound],,,,,45.7,45,,
H2-Thr-Arg-Asn-Asp-Lys-Leu-OH (H-TRNDKL-OH) [Peptide 2],23.5,,42.6,,,,25,42
